Test results: US12521439B2, “Methods and materials for modulating Nrf2 pathway” (The General Hospital Corporation, priority 2019, dated 2026)

Tests used:
CT2A mouse glioma cells = test: Cytokine/chemokine array of glioma cell lysates; format: cell-based; details: OBT 4 μM, 24 hrs
Experimental: To evaluate the effect of OBT on glioma secretome, CT2A mouse glioma cells were treated with OBT (4 μM) for 24 hrs and analyzed cell lysates by cytokine/chemokine array. GBM cells responded to OBT, Nrf2 and ROS induction, by activating several cytokines known to be involved in immune cell chemotaxis and migration (CCL2, CXCL10, IL-6). […] These innate immunity-related factors may directly contribute to control tumor growth or shape the development of adaptive immunity. Thus, OBT can induce factors that induces activation of tumor immune response.

bovine catalase = target: T1, bovine catalase (Bos taurus, UniProt P00432); test: Differential alkylation mass spectrometry, catalase; format: binding
T1 construct: purchased Sigma-Aldrich
T1 sequence (P00432 1-527): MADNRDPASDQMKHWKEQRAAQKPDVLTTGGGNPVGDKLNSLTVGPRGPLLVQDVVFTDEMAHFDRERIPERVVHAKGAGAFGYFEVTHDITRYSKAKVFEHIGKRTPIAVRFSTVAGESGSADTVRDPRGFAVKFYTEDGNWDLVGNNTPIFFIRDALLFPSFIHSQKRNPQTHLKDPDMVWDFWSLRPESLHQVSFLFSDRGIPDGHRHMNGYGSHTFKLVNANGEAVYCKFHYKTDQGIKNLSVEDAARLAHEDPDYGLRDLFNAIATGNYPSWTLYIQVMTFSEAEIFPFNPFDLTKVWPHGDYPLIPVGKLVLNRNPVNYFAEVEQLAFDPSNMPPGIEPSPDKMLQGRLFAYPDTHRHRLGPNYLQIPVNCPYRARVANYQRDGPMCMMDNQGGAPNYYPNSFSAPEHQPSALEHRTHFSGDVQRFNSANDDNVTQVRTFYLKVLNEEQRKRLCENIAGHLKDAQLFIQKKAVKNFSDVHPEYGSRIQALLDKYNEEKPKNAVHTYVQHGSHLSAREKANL
Experimental: Differential Alkylation for OBT Binding Characterization: 10 μg of bovine catalase (Sigma-Aldrich) were suspended in 100 μl of 50 mM HEPES (pH 8.5)/0.5% SDS and OBT, iodoacetamide (IAA), or N-ethylmaleimide (NEM) was added to a final concentration of 5 mM and the mixtures were incubated for 30 min at RT in the dark before adding IAA to all three reactions to a final concentration of 10 mM in the sample treated with IAA in the first alkylation step, and of 5 mM in the other two samples. Upon incubation at RT for 30 min in the dark dithiothreitol (DTT) was added to all reaction to a final concentration of 20 mM and the reactions were first incubated at RT in the dark for 15 min and then at 56° C. for 30 min. Then, NEM was added to all reactions to a final concentration of 100 mM followed by incubation at RT in the dark for 30 min. The experiments were done in triplicate. Samples were analyzed by mass spectrometry as described below.
Quantitative Proteomics: Cell pellets were lysed in a buffer of 75 mM NaCl, 50 mM HEPES pH 8.5, 10 mM sodium pyrophosphate, 10 mM sodium fluoride, 10 mM β-glycerophosphate, 10 mM sodium orthovanadate, 10 mM PMSF, Roche complete mini EDTA free protease inhibitors (1 tablet per 20 ml), and 3% SDS. Lysis was achieved by passing the suspension through a 21-gauge needle 20 times. Proteins were prepared for proteomics analysis as described previously. […] Twelve fractions were analyzed by multiplexed quantitative proteomics performed on an Orbitrap Fusion mass spectrometer (Thermo Scientifc) using a Simultaneous Precursor Selection (SPS) based MS3 method. […] For the cell line samples only MS3 with an average signal-to-noise value of larger than 40 per reporter ion as well as with an isolation specificity of larger than 0.75 were considered for quantification. […] A two-step normalization of the protein TMT-intensities was performed by first normalizing the protein intensities over all acquired TMT channels for each protein based on the median average protein intensity calculated for all proteins. […]

cancer cells = test: Cancer cell death with OBT, JQ1, OBT-JQ1; format: cell-based; details: OBT combined with JQ1, FIG. 22
Experimental: Cell viability: Cells were plated in 96-well plates and treated with the corresponding compounds. Cell viability was measured by adding 25 μl/well of CellTiter-Glo (Promega) followed by 10 minutes incubation and transfer to a white 96-well plate. Bioluminescence was quantified using Synergy HTX multimode reader (Biotek).

[1] = 2-fold excess of DTT over alkylating reagents

In the case of `COC1=CC(=O)C(O)=C/C1=C/C=C/c1ccccc1` [OBT, (Z)-2-hydroxy-5-methoxy-4-((E)-3-phenylallylidene)cyclohexa-2,5-dien-1-one], the “cytokines involved in immune response modulation (CD40, CXCL2, CCL5, CXCL-10, IL-6)” value (CT2A mouse glioma cells) is reported as “induced secretion”, the “binding to cysteine residues of bovine catalase” value (bovine catalase; 5 mM OBT, differential alkylation) is reported as “binds to all detected peptides with cysteine residues” and the “binding type at Cys-232 and Cys-460” value (bovine catalase; [1]) is reported as “tight or irreversible binding”. For the same molecule, the “binding type at Cys-377” value (bovine catalase; [1]) was “reversible binding” and the “interaction with JQ1” value (cancer cells) was “synergizes”.
